Laboratory results as given in ChEMBL document CHEMBL1201862, “PubChem BioAssay data set” (2004).
Activity calls are given as the source filed them.

Key:
[1] = target: G-protein coupled receptor 183 (Homo sapiens, UniProt P32249); assay: SAR confirmation of small molecule antagonists of the EBI2 receptor via a luminescent beta-arrestin assa.; type: functional
[2] = target: 5-hydroxytryptamine receptor 1A (Homo sapiens, UniProt P08908); type: functional
Estrogen receptor = target: T1, Estrogen receptor (Homo sapiens, UniProt P03372); assay: potentiators of ERα–SRC-1 coactivator binding, dose response, biochemical, TR-FRET, ERα LBD (AID 737)
T1 sequence (P03372 whole entry): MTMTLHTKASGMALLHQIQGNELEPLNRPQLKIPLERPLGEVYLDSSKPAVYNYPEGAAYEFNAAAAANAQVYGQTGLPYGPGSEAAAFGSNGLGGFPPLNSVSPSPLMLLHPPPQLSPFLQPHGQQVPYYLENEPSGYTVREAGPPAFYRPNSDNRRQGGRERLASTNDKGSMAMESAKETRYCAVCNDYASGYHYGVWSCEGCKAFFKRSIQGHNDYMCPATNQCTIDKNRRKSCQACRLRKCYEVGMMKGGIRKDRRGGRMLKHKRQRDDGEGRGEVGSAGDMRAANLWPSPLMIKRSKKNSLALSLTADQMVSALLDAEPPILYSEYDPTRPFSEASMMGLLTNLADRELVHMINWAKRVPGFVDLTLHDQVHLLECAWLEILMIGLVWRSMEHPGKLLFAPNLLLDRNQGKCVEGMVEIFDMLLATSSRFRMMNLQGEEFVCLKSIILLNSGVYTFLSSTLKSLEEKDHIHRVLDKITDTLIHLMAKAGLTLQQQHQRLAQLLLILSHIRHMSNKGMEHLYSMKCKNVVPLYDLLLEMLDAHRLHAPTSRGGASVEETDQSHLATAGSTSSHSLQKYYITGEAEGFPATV

[3] = P. falciparum Dd2 growth inhibitors, dose response, SYBR Green, dry powder samples (AID 1159566); type: functional, cell-based;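 also: potency for growth inhibition with lower SYBR green DNA signal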
[4] = HepG2 cell cytotoxicity, dose response, cytotoxicity control, plate reader, dry powder samples (AID 1159569); type: functional, cell-based;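 also: inhibitor potency with signal falling toward the positive control level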
[5] = Plasmodium falciparum Dd2 Sybr green parasite growth Measured in Cell-Based and Microorganism Combination System Using Plate Reader - 2153-01_Inhibitor_Dose_DryPowder_Activity_Set3.; type: functional
[6] = P. falciparum 3D7-ScDHODH growth inhibitors, dose response, SYBR Green, dry powder samples (AID 1159570); type: functional, cell-based;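 also: parasite growth measured after 72 hours of compound exposure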
[7] = P. falciparum ATP4 D1247Y mutant growth inhibitors, dose response, NITD609-resistant line, SYBR Green, dry powder (AID 1159571); type: functional, cell-based;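 also: parasites synchronized at ring stage by sorbitol before testing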
[8] = P. falciparum Dd2 growth inhibitors, dose response, SYBR Green, cherry-picked samples (AID 1159567); type: functional, cell-based
[9] = P. falciparum Dd2 growth inhibitors, dose response, SYBR Green, dry powder samples, set 9 (AID 1159568); type: functional, cell-based
[10] = HepG2 cell cytotoxicity, dose response, cytotoxicity control, cherry-picked samples (AID 1159577); type: functional, cell-based
[11] = target: T2, Carboxy-terminal domain RNA polymerase II polypeptide A small phosphatase 1 (Homo sapiens, UniProt Q9GZU7); assay: inhibitors of CTDSP1, concentration-response testing, biochemical assay, absorbance-based, actives from ultra-high-throughput screening (AID 540297); type: functional
T2 sequence (Q9GZU7 whole entry): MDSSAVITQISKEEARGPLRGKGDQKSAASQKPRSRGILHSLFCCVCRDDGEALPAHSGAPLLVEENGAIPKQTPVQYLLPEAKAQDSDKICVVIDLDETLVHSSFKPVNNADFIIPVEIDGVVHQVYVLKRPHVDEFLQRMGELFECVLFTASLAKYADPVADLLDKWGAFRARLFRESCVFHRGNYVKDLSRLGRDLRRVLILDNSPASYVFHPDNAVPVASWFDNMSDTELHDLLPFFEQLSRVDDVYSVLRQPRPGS

Estrogen receptor beta = Estrogen receptor beta (Homo sapiens, UniProt Q92731); assay: ERβ–SRC-3 coactivator interaction inhibitors, confirmation, orthogonal assay, biochemical, ELISA, streptavidin-HRP readout (AID 1060)
[12] = Vero cell cytotoxicity, dose response, cytotoxicity control for Vif-APOBEC3G degradation inhibitor project, Vero cells (AID 1117358); type: functional; conditions: Human immunodeficiency virus 1, Vero
[13] = M. tuberculosis H37Rv growth inhibitors, H37Rv strain (AID 1626); type: functional
[14] = target: Luciferin 4-monooxygenase (Photinus pyralis, UniProt P08659); assay: firefly luciferase enzyme inhibitors, dose response, biochemical, luminescence (AID 1891)
[15] = Fluorescence Cell-Based Dose Response to Identify Inhibitors of Thrombin Receptor-Activating Peptide SFLLRN-Mediated P-Selectin Induction on Platelets. [Related pubchem assays: 1663 (Primary HTS), 1889 (retest at dose ), 1891 (counterscreen), 1678 (Project Summary)]; type: functional
[16] = Luminescence Cell-Based Dose Confirmation HTS to Identify Inhibitors of Platelet Dense Granule Release. [Related pubchem assays: 1663 (Primary HTS), 1678 (Summary of Project)]; type: functional
[17] = target: Induced myeloid leukemia cell differentiation protein Mcl-1 (Homo sapiens, UniProt Q07820); type: functional
Chain of Induced myeloid leukemia cell differentiation protein Mcl-1 (Q07820 whole entry): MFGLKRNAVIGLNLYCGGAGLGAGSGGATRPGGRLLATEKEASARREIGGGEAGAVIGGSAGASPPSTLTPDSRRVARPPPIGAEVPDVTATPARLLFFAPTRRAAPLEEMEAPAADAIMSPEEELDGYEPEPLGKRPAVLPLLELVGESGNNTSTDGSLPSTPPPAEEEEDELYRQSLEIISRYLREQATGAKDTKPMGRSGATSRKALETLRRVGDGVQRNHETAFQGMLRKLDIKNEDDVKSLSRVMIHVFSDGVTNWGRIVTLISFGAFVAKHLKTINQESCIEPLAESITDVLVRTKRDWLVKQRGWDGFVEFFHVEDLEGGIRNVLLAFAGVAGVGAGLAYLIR

Chain of Estrogen receptor beta (Q92731 whole entry): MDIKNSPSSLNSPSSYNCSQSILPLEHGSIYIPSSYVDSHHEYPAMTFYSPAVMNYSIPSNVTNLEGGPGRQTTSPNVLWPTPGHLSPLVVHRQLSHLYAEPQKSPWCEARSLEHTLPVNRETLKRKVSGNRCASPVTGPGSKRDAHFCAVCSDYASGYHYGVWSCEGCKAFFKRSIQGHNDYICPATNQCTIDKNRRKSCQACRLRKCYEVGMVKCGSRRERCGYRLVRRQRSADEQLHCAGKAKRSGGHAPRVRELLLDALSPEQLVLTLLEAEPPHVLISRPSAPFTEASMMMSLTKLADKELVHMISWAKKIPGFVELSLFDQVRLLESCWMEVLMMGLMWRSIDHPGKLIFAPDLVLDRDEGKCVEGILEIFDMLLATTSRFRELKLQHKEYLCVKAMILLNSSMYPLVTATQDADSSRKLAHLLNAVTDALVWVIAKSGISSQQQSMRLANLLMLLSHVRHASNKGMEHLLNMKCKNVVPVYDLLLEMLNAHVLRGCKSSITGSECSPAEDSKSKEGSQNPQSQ
Chain of G-protein coupled receptor 183 (P32249 whole entry): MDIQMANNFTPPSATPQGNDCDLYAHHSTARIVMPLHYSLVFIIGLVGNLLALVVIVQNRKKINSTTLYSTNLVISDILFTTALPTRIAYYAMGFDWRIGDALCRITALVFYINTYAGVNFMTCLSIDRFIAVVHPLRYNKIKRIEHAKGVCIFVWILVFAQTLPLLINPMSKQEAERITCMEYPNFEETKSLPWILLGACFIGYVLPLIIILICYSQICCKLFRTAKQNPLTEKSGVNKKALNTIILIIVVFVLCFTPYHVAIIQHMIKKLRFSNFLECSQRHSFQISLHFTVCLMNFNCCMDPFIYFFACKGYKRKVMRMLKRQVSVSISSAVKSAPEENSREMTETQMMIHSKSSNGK
Chain of Luciferin 4-monooxygenase (P08659 whole entry): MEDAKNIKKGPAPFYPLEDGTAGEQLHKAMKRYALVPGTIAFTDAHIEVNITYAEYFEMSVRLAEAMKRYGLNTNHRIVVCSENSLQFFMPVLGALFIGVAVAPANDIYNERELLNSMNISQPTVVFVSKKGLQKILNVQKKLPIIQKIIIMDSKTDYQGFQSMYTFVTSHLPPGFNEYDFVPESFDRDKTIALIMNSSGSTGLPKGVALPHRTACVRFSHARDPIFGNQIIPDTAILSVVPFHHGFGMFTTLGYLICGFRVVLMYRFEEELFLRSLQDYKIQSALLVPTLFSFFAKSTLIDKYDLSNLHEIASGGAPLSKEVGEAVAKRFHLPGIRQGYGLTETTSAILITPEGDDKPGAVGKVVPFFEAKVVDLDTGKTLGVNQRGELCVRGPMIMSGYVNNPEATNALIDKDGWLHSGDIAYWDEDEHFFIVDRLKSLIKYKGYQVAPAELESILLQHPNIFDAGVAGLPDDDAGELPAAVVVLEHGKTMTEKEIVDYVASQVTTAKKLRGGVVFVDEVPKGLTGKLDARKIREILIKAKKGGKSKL
Chain of 5-hydroxytryptamine receptor 1A (P08908 whole entry, the tested form may be a part): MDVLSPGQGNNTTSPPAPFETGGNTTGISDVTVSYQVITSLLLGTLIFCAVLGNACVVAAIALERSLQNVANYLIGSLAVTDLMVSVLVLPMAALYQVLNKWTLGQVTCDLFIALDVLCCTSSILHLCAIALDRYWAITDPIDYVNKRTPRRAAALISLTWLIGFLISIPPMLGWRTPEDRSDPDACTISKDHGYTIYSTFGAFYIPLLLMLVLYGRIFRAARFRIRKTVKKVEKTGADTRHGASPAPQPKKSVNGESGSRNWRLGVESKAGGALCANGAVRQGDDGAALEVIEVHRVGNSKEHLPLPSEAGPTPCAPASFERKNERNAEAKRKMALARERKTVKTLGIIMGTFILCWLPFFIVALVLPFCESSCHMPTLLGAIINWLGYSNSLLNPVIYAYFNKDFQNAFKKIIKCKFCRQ

CC(C)c1ccc(S(=O)(=O)N2CCN(C(=O)/C=C/c3ccc(F)cc3)CC2)cc1
IC50 [1]: 24.3 nM (active)

CC(=O)Nc1ccc(S(=O)(=O)N(C)c2ccc(O)cc2)cc1
EC50 [2]: > 50000 nM (not active)

O=C(/C=C/c1ccc(F)cc1)N1CCN(S(=O)(=O)C2=Cc3ccccc3CC2)CC1
IC50 [1]: 1.15 nM (active)

COc1ccc(-c2cn3c(C)c(C(=O)Nc4ccncc4)sc3n2)cc1
EC50 (Estrogen receptor): 18900 nM (active)

COc1ccccc1C#Cc1ccc([C@H]2[C@@H](C#N)N(C(=O)C3CCCC3)[C@H]2CO)cc1
AC50 [3]: 474 nM (active) | AC50 [4]: 23800 nM (active) | AC50 [5]: 1160 nM (active) | AC50 [6]: 715 nM (active) | AC50 [7]: 808 nM (active) | AC50 [8]: 873 nM (active) | AC50 [9]: 493 nM (active) | AC50 [10]: 34100 nM (active)

N#CC1=C(N)n2c(s/c(=C\c3ccco3)c2=O)=C(C#N)C1c1ccco1 (stereo unspecified)
IC50 [11]: 3440 nM (active) | IC50 (Estrogen receptor beta): 1920 nM (not active)

COc1cc(C(=O)NCC(c2ccco2)N2CCCC2)ccc1OCc1c(C)noc1C (stereo unspecified)
CC50 [12]: > 40000 nM (active)

COc1ccc2nc(O)c(CN(C(=O)NC3CCCCC3)C3CCCCC3)cc2c1
IC50 [13]: > 100000 nM (active)

CCOc1cc(/C=N/NC(N)=O)cc(Br)c1OCC(=O)Nc1ccccc1C
EC50 [14]: > 112000 nM (not active) | EC50 [15]: < 1000 nM (active) | EC50 [16]: 1550 nM (active)

CC(C)Cn1c(N)c(C(=O)COC(=O)c2cc(-c3ccco3)nc3ccccc23)c(=O)n(C)c1=O
IC50 [17]: 2590 nM (active) | IC50 (Estrogen receptor beta): > 50000 nM (not active)
